{"source": "patent US6120997A", "about": "“Nucleic acid binders having an hydroxyamine motif” (The Scripps Research Institute, priority 1998, dated 2000)", "key": {"[1]": {"system": "AS-U1495A", "experiment": "SPR binding of aminoglycosides to AS-U1495A", "settings": "HBS-buffer", "protocol": "The RNA binding properties of 100-800 were analyzed using a surface plasmon resonance based assay that was recently developed in these laboratories. This assay allows the determination of both affinity and specificity of small molecule-RNA interactions. For the analysis, the compounds were injected over a matrix containing RNA that was immobilized through a biotin tag and the equilibrium binding values were recorded at various concentrations.\nNon-linear curve fitting was then used to determine the values of the dissociation constants (KD). The specificity of binding, i.e. the ability to discriminate between different RNA sequences was evaluated by comparing the binding to the target sequence (AS-wt) and the negative control (AS-U1495A). […]\nFor the quantitative measurement of aminoglycoside binding to these sequences, we utilized our recently developed SPR-based assay. […]\nIn the same manner as illustrated for paromomycin, a panel of aminoglycosides was screened and the results are compiled in the table of FIGS. 46 and 47. […] All data were recorded under near physiological salt conditions (HBS-buffer: 150 mM NaCl, 10 mM HEPES, pH7.4, 3.4 mM EDTA) unless noted otherwise. […]\nPlasmon resonance and antimicrobial testing for Example 4. Synthesis of the biotinylated RNA and surface plasmon resonance detected binding experiments were performed as described vida supra. […]"}, "[2]": {"system": "Escherichia coli (ATCC 25922)", "experiment": "minimum inhibitory concentration, broth dilution technique", "format": "cell-based", "settings": "E. coli, liquid culture", "excerpt": "We reasoned that this modification would provide the cleanest test for probing the ionic contribution, since hydrogen bond donor abilities, electronegativity and steric demand are similar for both functional groups. In order to learn how well the model system correlates with in vivo activity, we checked the new compounds for antibacterial activity against three bacterial strains using the disc method (Kirby-Bauer technique). The minimum inhibitory concentrations (MICs) of the compounds were then determined using the broth dilution technique. For antibiotic testing protocols, see: (a) Disk testing protocols: Phillips, I.; Williams, D., in Laboratory Methods in Antimicrobial Chemotherapy, Garrod, L. (ed.) Churchill Livingstone Press: Edinburgh, 1978, pp. 3-30. (b) MIC determination: Waterworth, P. M., in Laboratory Methods in Antimicrobial Chemotherapy, Garrod, L. (ed.) Churchill Livingstone Press: Edinburgh, 1978, pp. 31-40; Barry, A. L. The Antimicrobic Susceptibility Test: Principles and Practice, Lea and Febiger: Philadelphia (1976). (c) Standards: Lorian, V., Antibiotics in Laboratory Medicine (2nd. ed.), Williams and Wilkins: Baltimore, 1986.\nFIG. 39A gives the zone diameters measured for the three bacterial strains. The zone diameters measured for the strains with known antibiotics are well within the accepted limits. […] It is worth noting that some testing protocols recommend overnight growth of the cultures, rather than the minimum time required to obtain good growth of the control. MIC values were tested for several of the control antibiotics using overnight growth, and the MIC values observed were 2-4× greater than those observed for 4-6 hour growth.\nMinimal Inhibitory Concentration (MIC) testing. E. coli ATCC 25922 was grown in Mueller-Hinton broth (cation-adjusted, BBL Microbiology Systems) to an optical density of approx. 0.5 (absorbance read at 600 nm), then diluted to an OD600 of 0.1. Samples of antibiotic were prepared in Mueller-Hinton broth, typically a series of 2-fold dilutions from […]. […] The absorbance of each sample was read (1=600 nm), and MIC was considered to be the lowest antibiotic concentration at which the absorbance was less than 1% of the no-antibiotic control."}, "[3]": {"settings": "cited from earlier work"}}}
{"smiles": "NC[C@@H]1O[C@H](O[C@H]2[C@@H](O)[C@H](O[C@@H]3[C@@H](O)[C@H](N)C[C@H](N)[C@H]3O[C@H]3O[C@H](CO)[C@@H](O)[C@H](O)[C@H]3N)O[C@@H]2CO)[C@H](N)[C@@H](O)[C@@H]1O", "note": "[Paromomycin]", "values": [{"measurement": "weaker binding to AS-U1495A than to AS-wt", "setting": "[1]", "value": 20, "unit": "fold"}]}
{"smiles": "NC[C@@H]1O[C@H](O[C@H]2[C@@H](O)[C@H](O[C@@H]3[C@@H](O)[C@H](N)C[C@H](N)[C@H]3O[C@H]3O[C@H](CN)[C@@H](O)[C@H](O)[C@H]3N)O[C@@H]2CO)[C@H](N)[C@@H](O)[C@@H]1O", "note": "[Neomycin B]", "values": [{"measurement": "antibacterial activity / MIC compared with neomycin B (in words)", "setting": "[2]", "value": "within accepted ranges for sensitive E. coli strains"}, {"measurement": "pKa of N3", "setting": "[3]", "value": "< 6"}]}
